Laboratory results as given in ChEMBL document CHEMBL4477234, “Potent Suppressive Effects of 1-Piperidinylimidazole Based Novel P2X7 Receptor Antagonists on Cancer Cell Migration and Invasion” (J Med Chem, 2016).
The source made the active and inactive calls. The calls are words filed in the database; no cut-off is given here.

Experiments:
P2X purinoceptor 7 [1] = target: T1, P2X purinoceptor 7 (Homo sapiens, UniProt Q99572); assay: Antagonist activity at human P2X7 receptor
T1 sequence (Q99572 whole entry): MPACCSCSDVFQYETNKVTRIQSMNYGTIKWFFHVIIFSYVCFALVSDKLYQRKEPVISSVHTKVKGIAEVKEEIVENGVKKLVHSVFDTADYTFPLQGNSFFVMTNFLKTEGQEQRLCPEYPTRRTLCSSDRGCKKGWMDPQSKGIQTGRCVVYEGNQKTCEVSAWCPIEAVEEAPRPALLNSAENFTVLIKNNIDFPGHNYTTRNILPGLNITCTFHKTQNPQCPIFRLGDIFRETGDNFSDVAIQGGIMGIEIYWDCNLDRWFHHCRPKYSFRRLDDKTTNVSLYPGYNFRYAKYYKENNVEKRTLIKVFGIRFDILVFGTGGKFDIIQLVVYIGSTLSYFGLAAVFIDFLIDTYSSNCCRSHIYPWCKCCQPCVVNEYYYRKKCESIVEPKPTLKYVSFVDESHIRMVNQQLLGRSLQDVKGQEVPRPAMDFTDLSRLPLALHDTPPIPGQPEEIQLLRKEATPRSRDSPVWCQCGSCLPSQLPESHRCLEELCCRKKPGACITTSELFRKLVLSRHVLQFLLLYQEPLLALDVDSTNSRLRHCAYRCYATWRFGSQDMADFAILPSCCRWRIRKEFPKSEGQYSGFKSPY

P2X purinoceptor 7 [2] = target: T1, P2X purinoceptor 7; assay: Antagonist activity at human P2X7 receptor in LPS/IFN-gamma-differentiated human THP-1 cells assessed as suppression of BzATP-stimulated IL-1beta release per-incubated for 30 mins before BzATP addition and measured after 30 mins by ELISA; type: cell-based
MDA-MB-231 [3] = assay: Antimigratory activity against human MDA-MB-231 cells xenografted in zebrafish assessed as inhibition of cell dissemination and invasion at 10 uM measured after 4 days by fluorescence microscopic analysis relative to control; type: functional, cell-based
MDA-MB-231 [4] = assay: Antiinvasive activity against human MDA-MB-231 cells measured after 48 hrs by transwell invasion assay; type: functional, cell-based; conditions: MDA-MB-231, 48 h
P2X purinoceptor 1 = target: T2, P2X purinoceptor 1 (Rattus norvegicus, UniProt P47824); assay: Antagonist activity at P2X1 receptor in rat vas deferens assessed as inhibition of alpha/beta-meATP-induced calcium influx
T2 sequence (P47824 whole entry): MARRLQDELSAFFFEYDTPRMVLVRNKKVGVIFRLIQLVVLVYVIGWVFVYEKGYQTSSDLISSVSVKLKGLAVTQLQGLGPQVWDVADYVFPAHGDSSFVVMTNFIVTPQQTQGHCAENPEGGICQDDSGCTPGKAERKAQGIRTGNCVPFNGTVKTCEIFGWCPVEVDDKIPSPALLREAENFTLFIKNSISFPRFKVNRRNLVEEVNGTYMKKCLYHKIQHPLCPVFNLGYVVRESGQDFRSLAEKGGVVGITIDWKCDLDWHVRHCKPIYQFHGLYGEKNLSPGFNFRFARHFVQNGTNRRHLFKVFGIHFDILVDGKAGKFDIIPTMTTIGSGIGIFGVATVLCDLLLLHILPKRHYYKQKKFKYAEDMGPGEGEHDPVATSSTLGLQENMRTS

P2X purinoceptor 7 [5] = target: T1, P2X purinoceptor 7; assay: Antagonist activity at human P2X7 receptor expressed in HEK293 cells assessed as inhibition of BzATP-induced EtBr uptake measured after 2 hrs by fluorescence analysis; type: cell-based
[6] = target: T3, P2X purinoceptor 4 (Homo sapiens) (UniProt Q99571); assay: Antagonist activity at human P2X4 receptor expressed in human 1321N1 cells assessed as inhibition of ATP-induced calcium influx at 1 uM preincubated for 30 mins prior to ATP-stimulation by calcium influx assay; type: cell-based
T3 sequence (whole entry): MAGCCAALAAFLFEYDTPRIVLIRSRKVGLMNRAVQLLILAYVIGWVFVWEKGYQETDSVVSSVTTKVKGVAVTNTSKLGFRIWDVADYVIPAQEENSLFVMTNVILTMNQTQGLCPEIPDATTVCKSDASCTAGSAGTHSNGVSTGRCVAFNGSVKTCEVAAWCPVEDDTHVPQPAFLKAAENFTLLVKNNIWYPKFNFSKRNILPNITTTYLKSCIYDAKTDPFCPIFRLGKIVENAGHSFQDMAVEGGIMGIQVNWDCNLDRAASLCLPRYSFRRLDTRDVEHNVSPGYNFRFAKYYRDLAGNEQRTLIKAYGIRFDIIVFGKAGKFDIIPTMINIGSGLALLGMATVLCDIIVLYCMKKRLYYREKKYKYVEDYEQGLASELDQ

[7] = target: T4, P2X purinoceptor 2 (Homo sapiens) (UniProt Q9UBL9); assay: Antagonist activity at human P2X2 receptor expressed in human 1321N1 cells assessed as inhibition of ATP-induced calcium influx at 1 uM preincubated for 30 mins prior to ATP-stimulation by calcium influx assay; type: cell-based
T4 sequence (whole entry): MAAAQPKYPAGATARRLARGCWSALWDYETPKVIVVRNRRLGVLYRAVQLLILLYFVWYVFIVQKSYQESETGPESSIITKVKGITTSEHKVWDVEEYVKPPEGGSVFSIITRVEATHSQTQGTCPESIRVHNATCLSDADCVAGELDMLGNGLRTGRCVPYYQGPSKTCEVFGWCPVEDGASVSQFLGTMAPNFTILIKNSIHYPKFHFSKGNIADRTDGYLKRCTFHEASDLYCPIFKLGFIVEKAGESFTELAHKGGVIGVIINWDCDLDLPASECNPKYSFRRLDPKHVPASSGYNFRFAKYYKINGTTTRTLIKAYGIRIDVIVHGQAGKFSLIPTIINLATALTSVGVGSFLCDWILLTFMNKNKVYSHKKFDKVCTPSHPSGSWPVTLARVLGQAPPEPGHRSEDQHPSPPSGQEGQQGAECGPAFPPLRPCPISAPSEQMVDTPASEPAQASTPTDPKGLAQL

[8] = target: T5, P2X purinoceptor 1 (Homo sapiens) (UniProt P51575); assay: Antagonist activity at human P2X1 receptor expressed in human 1321N1 cells assessed as inhibition of ATP-induced calcium influx at 1 uM preincubated for 30 mins prior to ATP-stimulation by calcium influx assay; type: cell-based
T5 sequence (whole entry): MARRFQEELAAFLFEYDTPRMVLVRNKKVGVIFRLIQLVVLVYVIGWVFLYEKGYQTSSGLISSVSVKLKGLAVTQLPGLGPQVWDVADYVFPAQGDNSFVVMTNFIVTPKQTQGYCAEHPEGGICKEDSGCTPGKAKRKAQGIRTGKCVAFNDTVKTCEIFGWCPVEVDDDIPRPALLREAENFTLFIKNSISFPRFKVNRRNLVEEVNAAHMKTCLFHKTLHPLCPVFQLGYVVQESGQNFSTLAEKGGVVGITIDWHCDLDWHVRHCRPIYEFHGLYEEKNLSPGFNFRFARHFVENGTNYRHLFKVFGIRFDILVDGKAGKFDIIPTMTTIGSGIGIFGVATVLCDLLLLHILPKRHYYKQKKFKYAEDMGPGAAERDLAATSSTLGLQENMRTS

[9] = target: T6, P2X purinoceptor 3 (Homo sapiens) (UniProt P56373); assay: Antagonist activity at human P2X3 receptor expressed in human 1321N1 cells assessed as inhibition of ATP-induced calcium influx at 1 uM preincubated for 30 mins prior to ATP-stimulation by calcium influx assay; type: cell-based
T6 sequence (whole entry): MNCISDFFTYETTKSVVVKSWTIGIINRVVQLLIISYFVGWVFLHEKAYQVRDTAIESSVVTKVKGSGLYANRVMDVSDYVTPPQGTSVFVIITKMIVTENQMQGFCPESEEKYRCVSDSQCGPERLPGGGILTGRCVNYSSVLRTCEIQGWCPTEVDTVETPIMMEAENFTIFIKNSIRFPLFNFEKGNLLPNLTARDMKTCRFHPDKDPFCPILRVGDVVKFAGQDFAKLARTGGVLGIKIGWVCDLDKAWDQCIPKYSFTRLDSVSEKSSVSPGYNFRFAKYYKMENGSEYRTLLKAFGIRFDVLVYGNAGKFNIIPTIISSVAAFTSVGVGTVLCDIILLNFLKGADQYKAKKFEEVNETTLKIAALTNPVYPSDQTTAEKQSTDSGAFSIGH

[10] = target: T3, P2X purinoceptor 4 (Homo sapiens); assay: Antagonist activity at human P2X4 receptor expressed in human 1321N1 cells assessed as inhibition of ATP-induced calcium influx at 10 uM preincubated for 30 mins prior to ATP-stimulation by calcium influx assay; type: cell-based
P2X purinoceptor 2 = target: T7, P2X purinoceptor 2 (Homo sapiens, UniProt Q9UBL9); assay: Antagonist activity at human P2X2 receptor expressed in human 1321N1 cells assessed as inhibition of ATP-induced calcium influx preincubated for 30 mins prior to ATP-stimulation by calcium influx assay; type: cell-based
T7 sequence (Q9UBL9 whole entry): T4 sequence (whole entry)

With `COc1ccc(CC(=O)NC(N/C(=N/C#N)Nc2cccc3ncccc23)C(C)(C)C)cc1OC` (stereo not given) the IC50 (P2X purinoceptor 7 [1]) was 90 nM.

With `O=C(NCC12CC3CC(CC(C3)C1)C2)c1cc(CCCNCCCO)ccc1Cl` the IC50 (P2X purinoceptor 7 [2]) was 0.06 nM, the inhibition (MDA-MB-231 [3]) was “Active” and the IC50 (P2X purinoceptor 7 [1]) was 10 to 13 nM. It also gave an IC50 (MDA-MB-231 [4]) of 8.7 µM.

`Cc1ccc(C(=O)Nc2ccc(S(=O)(=O)O)c3cc(S(=O)(=O)O)cc(S(=O)(=O)O)c23)cc1NC(=O)c1cccc(NC(=O)Nc2cccc(C(=O)Nc3cc(C(=O)Nc4ccc(S(=O)(=O)O)c5cc(S(=O)(=O)O)cc(S(=O)(=O)O)c45)ccc3C)c2)c1` [SURAMIN] was tested, and the IC50 (P2X purinoceptor 1) was 4.68 µM.

In the case of `CS(=O)(=O)c1ccc(C(=O)N2CCC(c3nc4cc(OS(=O)(=O)c5cccc6cnccc56)ccc4[nH]3)CC2)cc1`, the IC50 (P2X purinoceptor 7 [5]) is reported as 7 nM, the IC50 (P2X purinoceptor 7 [2]) is reported as 43 nM and the inhibition [6] is reported as 15%. The inhibition (MDA-MB-231 [3]) was “inactive”, the inhibition [7] was 7% and the inhibition [8] was 16%. It also gave an inhibition [9] of 3%.

With `Nc1c(S(=O)(=O)O)cc(Nc2ccc(S(=O)(=O)O)c(Nc3nc(Cl)nc(Cl)n3)c2)c2c1C(=O)c1ccccc1C2=O` the inhibition [10] was 3% and the IC50 (P2X purinoceptor 2) was 692 nM.
